From PubChem BioAssay (NCI)
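Step 1: Grow cells in 96-well plates. Step 2: Expose to compound for 48 hours at 5 concentrations. Step 3: Interpolate endpoints linearly; if unreached, use highest concentration. The concentration for 50% growth inhibition is given as GI50. TGI: concentration producing complete growth inhibition.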

Key:
Experiment in all cases: NCI anticancer screen, dose series, 48 h
KM12 colon = tested on: KM12 colon
HL-60(TB) leukemia = tested on: HL-60(TB) leukemia
RXF 393 renal = tested on: RXF 393 renal
HCT-116 colon = tested on: HCT-116 colon
U251 CNS = tested on: U251 CNS
NCI-H522 lung = tested on: NCI-H522 lung
MDA-MB-231 breast = tested on: MDA-MB-231 breast
HOP-62 NSCLC = tested on: HOP-62 NSCLC
CCRF-CEM leukemia = tested on: CCRF-CEM leukemia
SW-620 colon = tested on: SW-620 colon
SN12C renal = tested on: SN12C renal
NCI-H226 lung = tested on: NCI-H226 lung
BT-549 breast = tested on: BT-549 breast
MALME-3M melanoma = tested on: MALME-3M melanoma
HS 578T breast = tested on: HS 578T breast

SMILES | TGI (KM12 colon) | TGI (HL-60(TB) leukemia) | TGI (RXF 393 renal) | TGI (HCT-116 colon) | TGI (U251 CNS) | TGI (NCI-H522 lung) | TGI (MDA-MB-231 breast) | TGI (HOP-62 NSCLC) | TGI (CCRF-CEM leukemia) | TGI (SW-620 colon) | TGI (SN12C renal) | TGI (NCI-H226 lung) | TGI (BT-549 breast) | TGI (MALME-3M melanoma) | TGI (HS 578T breast) | GI50 (CCRF-CEM leukemia) | GI50 (MALME-3M melanoma)
COC(=N)C12C(N)=NC(OC)(OC)C1(C#N)C21C(=O)N(c2ccccc2)N=C1C (stereo not drawn) | > 100 µM | > 100 µM | > 100 µM | > 100 µM | > 100 µM | > 100 µM | > 100 µM | > 100 µM | > 100 µM | > 100 µM | > 100 µM | > 100 µM | > 100 µM | > 100 µM | – | – | –
CC1[C@@H](OCc2ccccc2)COC(=O)N1Cc1ccccc1 (stereo partly drawn) | > 100 µM | – | – | > 100 µM | > 100 µM | – | > 100 µM | > 100 µM | > 100 µM | > 100 µM | > 100 µM | > 100 µM | – | > 100 µM | > 100 µM | – | –
CNC(=O)CCNC(=O)CCC(=O)OC | > 100 µM | – | > 100 µM | > 100 µM | > 100 µM | – | > 100 µM | > 100 µM | – | > 100 µM | > 100 µM | – | – | – | – | – | –
COc1ccc2c3ccc4c(c3n(C)c2c1)C(=O)c1ccccc1C4=O | – | > 100 µM | > 100 µM | > 100 µM | > 100 µM | > 100 µM | – | > 100 µM | > 100 µM | > 100 µM | > 100 µM | > 100 µM | – | > 100 µM | – | – | –
Cc1ccc(S(=O)(=O)NNC(=S)Nc2cccc3ccccc23)cc1 | 99 µM | > 100 µM | > 100 µM | > 100 µM | > 100 µM | 46.6 µM | > 100 µM | > 100 µM | > 100 µM | > 100 µM | > 100 µM | 95.2 µM | – | > 100 µM | > 100 µM | – | –
CN(C)CCO/N=C1/C=C2CC[C@H]3[C@@H]4CC[C@H](O)[C@@]4(C)CC[C@@H]3[C@@]2(C)CC1 | 32.4 µM | – | 27.7 µM | 31.5 µM | 27.5 µM | 13.7 µM | 44.4 µM | > 87.4 µM | > 21.6 µM | 36.1 µM | 32.8 µM | 8.87 µM | 8.27 µM | – | 54.1 µM | – | –
CC1NC(/C(=C/c2ccccc2O)NC(=O)c2ccccc2)OC1=O (stereo not drawn) | > 50 µM | > 50 µM | – | > 50 µM | > 50 µM | > 50 µM | > 50 µM | > 50 µM | > 50 µM | > 50 µM | > 50 µM | > 50 µM | > 50 µM | > 50 µM | – | – | –
[N-]=[N+]=NC1C(Br)C(=O)NC(=O)N1[C@H]1C[C@H](O)[C@@H](CO)O1 (stereo partly drawn) | > 100 µM | > 100 µM | > 100 µM | – | > 100 µM | > 100 µM | – | > 100 µM | > 100 µM | > 100 µM | > 100 µM | – | – | > 100 µM | – | 38 µM | 15.5 µM
CCC1(N=[N+]=[N-])C(=O)Nc2cc(C)ccc2C1=O (stereo not drawn) | > 100 µM | 53.6 µM | – | > 100 µM | > 100 µM | 15.6 µM | – | > 100 µM | > 100 µM | > 100 µM | > 100 µM | – | – | > 100 µM | – | – | –
O=c1cc(-c2cccc(OC(F)(F)F)c2)[nH]c2cc3c(cc12)OCO3 | > 100 µM | 0.0315 µM | > 89.4 µM | 34.6 µM | 0.188 µM | > 100 µM | – | > 47.8 µM | – | > 100 µM | > 100 µM | 9.16 µM | 33.5 µM | > 100 µM | 4.9 µM | – | –
COC(=O)[C@H](Cc1ccccc1)NC(=O)N1CCN(C(=O)N[C@@H](Cc2ccccc2)C(=O)OC)CCN(C(=O)N[C@@H](Cc2ccccc2)C(=O)OC)CC1 | > 100 µM | > 100 µM | > 100 µM | > 100 µM | > 100 µM | > 100 µM | – | > 100 µM | > 100 µM | > 100 µM | > 100 µM | > 100 µM | > 100 µM | > 100 µM | > 100 µM | – | –
O=C(c1ccncc1)n1nc(-c2ccccc2)c(N=Nc2ccc([N+](=O)[O-])cc2)c1-c1ccccc1 | > 100 µM | > 100 µM | – | > 100 µM | – | > 100 µM | – | > 100 µM | – | > 100 µM | > 100 µM | > 100 µM | – | > 100 µM | – | – | –
COC(=O)CC1C(=O)OCc2c1cc1n(c2=O)Cc2c-1nc1ccccc1c2OC (stereo not drawn) | – | > 100 µM | 70.2 µM | > 100 µM | > 100 µM | > 100 µM | – | > 100 µM | > 100 µM | > 100 µM | > 100 µM | – | – | > 100 µM | – | – | –
COC[n+]1cc2cc(OC)c(OC)cc2c2ccc3cc(OC)c(OC)cc3c21 | > 100 µM | > 100 µM | > 100 µM | > 100 µM | > 100 µM | > 100 µM | – | > 100 µM | > 100 µM | > 100 µM | > 100 µM | > 100 µM | – | > 100 µM | – | – | –
COC(=O)c1c(C(=O)OC)c2cc(C(=O)c3ccccc3)ccn2c1Cl | 72.8 µM | 54.2 µM | 85 µM | > 100 µM | > 100 µM | 50.8 µM | – | > 100 µM | 78 µM | > 100 µM | > 100 µM | 64.7 µM | – | > 100 µM | – | – | –
CC1=NN(C(=O)Cc2ccccc2)C(=O)/C1=C\C=C\c1ccccc1 | > 100 µM | > 100 µM | – | > 100 µM | – | > 100 µM | – | > 100 µM | > 100 µM | > 100 µM | > 100 µM | > 100 µM | – | > 100 µM | – | – | –
O=C1CCCC2=C1CC1=C(CCCC1=O)N2c1cccc2ccccc12 | > 100 µM | > 100 µM | 54.4 µM | – | > 100 µM | – | – | – | > 100 µM | > 100 µM | > 100 µM | > 100 µM | > 100 µM | – | > 100 µM | – | –
COc1ccc(C2C(Cl)C(=O)N2NC(=O)Cc2ccccc2)cc1 (stereo not drawn) | > 100 µM | > 100 µM | > 100 µM | > 100 µM | > 100 µM | > 100 µM | – | > 100 µM | > 100 µM | > 100 µM | > 100 µM | > 100 µM | – | > 100 µM | – | – | –
